# Assay results published in publication PMC9468151, “Identification of a binding site on soluble RANKL that can be targeted to inhibit soluble RANK-RANKL interactions and treat osteoporosis” (Nature Communications, 2022).
# Values joined by “and” are separate entries in the source; they are usually repeats but may differ in a detail not shown here. Equal values may be shown once.
# Columns and labels:
# RAW264.7 cells = experiment: In vitro cytotoxicity assay (MTT); assay type: cell-based, mouse; conditions: RAW264.7, MTT
# Protocol: MTT assay was used to determine cell viability. RAW264.7 cells in the logarithmic growth phase were cultured in 96-well plates with 6 × 10^3 cells in each well and incubated for 24 h. The surviving cells were then determined by MTT method. […] Cell growth inhibition ratio was calculated as follows: Cellgrowthinhibitionratio%=ODvehicle−ODtreaed/ODvehicle×100%
# Cell cytotoxicity CC50 value were conducted by using Nonlinear regression (curve fit) analytic procedure in GraphPad Prism 8.
# [1] = test system: sRANKL induced osteoclast differentiation; experiment: In vitro anti-osteoclastogenesis activity determination (TRAP staining); assay type: cell-based, mouse; design: key to inhibition of osteoclastogenesis, dose-response (fig. S2a): % inhibition = 100 − (treated−unstimulated)/(untreated−unstimulated)×100; conditions: for IC50: read-out: OC IC50 (anti-osteoclastogenesis activity); for inhibition of osteoclastogenesis, dose-response (fig. S2a): three replicate columns
# Protocol: Mouse osteoclasts were cultured according to the previously reported protocols. BMMs were plated in 96-well plates at a density of 6 × 10^3 cells/well with complete medium containing 10 ng/mL M-CSF. The following day, cells were then stimulated with 100 ng/mL sRANKL in the presence or absence of compounds with different concentrations every 2 days until osteoclasts formed. In order to calculate IC50, we set 9 concentrations for each compound and untreated and non-sRANKL unstimulating group as controls, each with triplicated repeated wells. After 5 days, cells were fixed with 4% paraformaldehyde and then applied TRAP-staining to identify osteoclasts by using the TRAP-staining kit. Osteoclasts number (OC No.) in each well was counted and the percentage of inhibition ratio was calculated as follows:1 OCinhibitoryratio%=100−OCNo.treated−OCNo.unstimulating/OCNo.untreated−OCNo.unstimulating×100%
# The dosages and their correspondent osteoclastogenesis inhibitory activity curve and IC50 value were conducted by using Nonlinear regression (curve fit) analytic procedure in GraphPad Prism 8. Photographs of individual wells were taken using Leica microscope.
# [2] = BMMs, M-CSF + 100 ng/mL sRANKL, 5 days, TRAP staining
Structure (SMILES),CC50 (RAW264.7 cells) [µM],"OC IC50 (anti-osteoclastogenesis activity) [1, 2]","IC50 [1, 2] [µM]","inhibition of osteoclastogenesis, dose-response (fig. S2a) ([1]; conc. 0.0023464 μM)","inhibition of osteoclastogenesis, dose-response (fig. S2a) ([1]; conc. 0.00774313 μM)","inhibition of osteoclastogenesis, dose-response (fig. S2a) ([1]; conc. 0.0255523 μM)","inhibition of osteoclastogenesis, dose-response (fig. S2a) ([1]; conc. 0.0843226 μM)","inhibition of osteoclastogenesis, dose-response (fig. S2a) ([1]; conc. 0.278265 μM)","inhibition of osteoclastogenesis, dose-response (fig. S2a) ([1]; conc. 0.918274 μM)","inhibition of osteoclastogenesis, dose-response (fig. S2a) ([1]; conc. 3.0303 μM)","inhibition of osteoclastogenesis, dose-response (fig. S2a) ([1]; conc. 10 μM)","inhibition of osteoclastogenesis, dose-response (fig. S2a) ([1]; conc. 33 μM)"
CC(=O)C(=NNc1ccccc1C(=O)O)C(=O)N1CCOCC1 [S3-18],52.6,Inactive,,,,,,,,,,
CCOC(=O)c1sc(NC(=O)C(=NNc2c(C(=O)O)cccc2C(=O)O)C(C)=O)nc1C [S3-19],77.9,,9.49,10.2719 and 4.834 (2×),5.287 and 4.834 and 5.74,0.7553 and 1.208 and 3.021,5.74 and 4.381 and -1.0574,18.8822 and 16.6163 and 15.2568,19.7885 and 17.0695 and 17.5227,26.1329 and 38.3686 and 35.1964,44.713 (2×) and 40.6344,74.1692 and 70.997 and 80.0604
CC(=O)C(=NNc1ccccc1C(=O)O)C(=O)Nc1nc(C)c(C(=O)N2CCOCC2)s1 [S3-20],> 100,,8.71,-0.2448 and 3.06 and 1.591,8.935 and 4.896 and 2.326,5.263 and 4.529 and 0.8568,5.63 and 2.326 and 1.591,4.529 and 3.06 and 3.794,5.63 and 5.263 (2×),5.263 and 7.466 and 5.998,58.8739 and 58.1395 and 58.5067,97.4296 and 97.0624 and 96.328
CCOC(=O)c1sc(NC(=O)C(=NNc2ccc(OC)cc2C(=O)O)C(C)=O)nc1C [S3-21],> 100,,0.95,1.224 and -3.182 and 3.06,7.099 and 0.1224 and 2.326,7.099 and 3.427 and 5.998,11.5055 and 14.0759 and 15.9119,35.7405 and 36.4749 and 35.0061,54.8348 and 53.7332 and 55.5692,59.2411 and 62.1787 and 63.2803,74.6634 and 76.8666 and 77.9682,100
CCOC(=O)c1sc(NC(=O)C(=NNc2ccccc2C(=O)O)C(=O)OC(C)C)nc1C [S3-22],81.2,,0.4,1.224 and 0.8568 and 0.4896,0.8568 and 1.958 and 3.427,4.896 and 10.0367 and 5.263,26.1934 and 25.0918 and 21.4198,44.1861 and 41.6157 and 42.7173,58.8739 and 65.1163 and 60.7099,88.2497 and 86.7809 and 89.3513,100,100
